Assay results from ChEMBL document CHEMBL3608267, “Identification of dialkyl diacetylene diols with potent cancer chemopreventive activity” (Bioorg Med Chem Lett, 2015).

Columns and labels:
[1] = Chemopreventive index, ratio of IC50 for mouse Hepa-1c1c7 cells to drug concentration required to double induction of NQO1 in mouse Hepa-1c1c7 cells
[2] = Toxicity against mouse Hepa-1c1c7 cells assessed as inhibition of cell proliferation; format: cell-based
[3] = molecular target: NAD(P)H dehydrogenase [quinone] 1 (Mus musculus) (UniProt Q64669); assay: Induction of NQO1 in mouse Hepa-1c1c7 cells assessed as drug concentration required to double induction by quinone reductase assay; format: cell-based
Chain of NAD(P)H dehydrogenase [quinone] 1 (Mus musculus) (Q64669 whole entry): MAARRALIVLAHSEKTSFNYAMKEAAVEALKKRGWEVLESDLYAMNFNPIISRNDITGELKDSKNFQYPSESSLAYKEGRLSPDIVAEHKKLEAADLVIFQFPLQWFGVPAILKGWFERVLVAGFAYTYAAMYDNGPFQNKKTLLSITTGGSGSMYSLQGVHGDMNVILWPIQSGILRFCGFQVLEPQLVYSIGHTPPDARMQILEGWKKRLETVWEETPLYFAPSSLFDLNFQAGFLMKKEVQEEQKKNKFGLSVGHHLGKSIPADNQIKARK

SMILES	Ratio [1]	IC50 [2] [µM]	CD [3] [µM]
CCCCCCCCCC(O)C#CC#CC(O)CC(C)C (stereo not drawn)	>5	> 50	10
CCCCCCCCCC(O)C#CC#CC(O)C1CCCCC1 (stereo not drawn)	4	44	11
C[S+]([O-])CCCCN=C=S (stereo not drawn) [SULFORAPHANE]	27	11	0.4
CCCCCC(O)C#CC#CC(O)CC(C)C (stereo not drawn)	32	41	1.3
CCCCC[C@H](O)C#CC#C[C@H](O)CCCCC	14	68	4.7
OC(C#CC#CC(O)C1CCCCC1)C1CCCCC1 (stereo not drawn)	>6	> 50	8.4
CCCCCC(O)C#CC#CCO (racemic)	>11	> 50	4.7
CCCCCC(O)C#CC#CC(O)CCCCC (mixture of isomers)	>16	> 50	3.1
CCCCC[C@H](O)C#CC#CCO	>31	> 100	3.2
CCCCCCCCCC(O)C#CC#CC(O)CCCCCCCCC (stereo not drawn)	1	26	26
CCCCCCCCCC(O)C#CC#CC(O)CCC (stereo not drawn)	7.2	30	4.2
CCCCC[C@@H](O)C#CC#CCO	>43	> 100	2.3
CCCC(O)C#CC#CCO (stereo not drawn)	>8.3	> 50	6
CCCCCC(O)C#CC#CC(O)C1CCCCC1 (mixture of isomers)	>16	> 50	3.2
C=CCCCCC/C=C\[C@@H](O)C#CC#C[C@@H](O)[C@H](C)O	>6.1	> 50	8.2
CCCC(O)C#CC#CC(O)C1CCCCC1 (stereo not drawn)	>8.1	> 50	6.2
CC(C)CC(O)C#CC#CC(O)C1CCCCC1 (stereo not drawn)	>8.9	> 50	5.6
CCCCCC(O)C#CC#CC(O)CCC (stereo not drawn)	24	19	0.8
CCCCC[C@H](O)C#CC#C[C@@H](O)CCCCC	18	47	2.6
CCCCCCCCCC(O)C#CC#CC(O)CCCCC (stereo not drawn)	4.6	12	2.6
CCCCC[C@@H](O)C#CC#C[C@H](O)CCCCC	20	12	0.6
